From patent US20020016293A1 (priority 2000, published 2002)
Where a name gives a salt, the structure may show the parent alone. Read-outs that look alike come from different tables or passages of the source. Non-standard residues stand in square brackets, D forms with d. Residues, ends and D or L forms follow the SMILES beside them. ξ: configuration not given here. *: point of attachment. NMeI = CC[C@H](C)[C@H](NC)C(=O)O; NMeξIle = CC[C@H](C)C(NC)C(=O)O; NMeD = CN[C@@H](CC(=O)O)C(=O)O; NMeV = CN[C@H](C(=O)O)C(C)C; Pip = O=C(O)[C@@H]1CCCCN1; Lac = C[C@H](O)C(=O)O; OtBu = CC(C)(C)O*

Experiments:
[1] = cited from earlier work; for absorption (in words): oral unless stated
p-glycoprotein [2] = conditions: cited from earlier work
[3] = Plasma pharmacokinetics of flavopiridol and flavopiridol glucuronide in metastatic renal cancer patients (HPLC); assay type: in vivo, human
Source text: All patients had metastatic renal cancer. […] Written informed consent was obtained from each patient in accordance with institutional and Federal guidelines. […] Toxicity assessment was done according to the Cancer and Leukemia Group B (CALGB) expanded toxicity criteria. For grade 3 or greater diarrheal episodes, patients were given loperamide or diphenoxylate hydrochloride plus atropine sulfate (Lomotil®). If diarrhea continued, treatment with octreotide acetate was begun. […] Heparinized blood samples were drawn at 23, 47, and 71 h into the infusion. Plasma was separated immediately by centrifugation and stored at −70° C. until analysis. Chemicals were obtained from Fisher Scientific (Itasca, Ill.) and Sigma Chemical Co. (St. Louis, Mo.). Quantitation of flavopiridol and its glucuronide in plasma was performed by high-pressure liquid chromatography (HPLC). […] Louis, Mo.), and these samples were incubated for 2 h (25° C.) prior to the addition of acetonitrile. […] Human plasma for the preparation of calibration standards was purchased from the Blood Bank at the University of Chicago Hospitals. […] Plasma samples for pharmacokinetics were collected during the first cycle of treatment (at 23, 47, and 71 h). […] Data are expressed as median values and interquartile range (the range of values between the 25th and the 75th percentile of the distribution). Significance has been tested by two-sided statistical tests. […] Moreover, Fisher's exact test was used to assess the association of flavopiridol systemic metabolism with the development of diarrhea. The distribution of the metabolic ratios at 71 h was investigated by constructing a frequency distribution histogram.

[4] = tested on: p-glycoprotein expressing cell lines; conditions: cited from earlier work
p-glycoprotein [5] = conditions: cited from earlier work; remark: listed apart in the source
[6] = tested on: multidrug resistant cells; conditions: no change in nonresistant parental cells; cited from earlier work
[7] = FLAVO glucuronidation assay, normal human liver microsomes; assay type: in vitro ADME; conditions: pooled human liver microsomes, pH 7.4; pool of human liver microsomes, substrate 0.1 to 3 mM, Lineweaver-Burke
Description: FLAVO glucuronidation assay. Reaction conditions were optimized using a range of substrate (0.02-1 mM), human liver microsomal protein (0.25-6 mg/ml) and UDPGA (2-10 mM) concentrations, as well as varying detergents (Brij 58, OLPC, CHAPS, Triton X-100, OLPC), and incubation times (0.5-4 h). […] The final incubation volume (250 μl) contained 50 mM tris-HCl (pH 7.4), 10 mM magnesium chloride, 0.5 mM FLAVO, 3 mg/ml protein, and 3 mM UDPGA. After incubation in a shaking water bath at 37° C. for 3 h, the reaction was terminated by the addition of 1 ml of acetonitrile. […] The supernatant was spiked with 100 μl of internal standard (100 μg/ml flavone in acetonitrile), and evaporated to dryness using nitrogen gas. Control experiments were performed simultaneously by omitting UDPGA. […] Aliquots (125 μl) were analyzed by high performance liquid chromatography (HPLC; Hitachi Instruments, Inc., San Jose, Calif., USA) with UV detection (265 nm). Reversed-phase chromatography was carried out using a μBondapak Phenyl column (10 μm, 3.9×300 mm; Waters Corporation, Milford, Mass., USA), and a μBondapak Phenyl guard-pak insert (Waters Corporation, Milford, Mass., USA).
Data analysis and statistics. Results were expressed as mean ± standard deviation (SD) of a single experiment performed in triplicate. […]

[8] = Diarrhea (CALGB expanded toxicity criteria) in patients given flavopiridol, by glucuronidation phenotype; assay type: in vivo, human
Source text: Toxicity assessment was done according to the Cancer and Leukemia Group B (CALGB) expanded toxicity criteria. For grade 3 or greater diarrheal episodes, patients were given loperamide or diphenoxylate hydrochloride plus atropine sulfate (Lomotil®). If diarrhea continued, treatment with octreotide acetate was begun.
Data are expressed as median values and interquartile range (the range of values between the 25th and the 75th percentile of the distribution). Significance has been tested by two-sided statistical tests. […] For this analysis, the adjusted P<0.017 (0.05/3) was considered significant.
Poor and extensive glucuronidators had metabolic ratios lower and higher than 1.2, respectively.

neoplastic cells = conditions: in vitro; cited from earlier work

OCCN1CCN(CCCN2c3ccccc3Sc3ccc(C(F)(F)F)cc32)CC1 [Fluphenazine hydrochloride]
absorption (in words) [1]: absorbed rapidly

CCC1(c2ccccc2)C(=O)NC(=O)NC1=O [Phenobarbital, 2,4,6(1H,3H,5H)-Pyrimidinetrione, 5-ethyl-5-phenyl-]
fraction of an oral dose absorbed ([1]; human, in vivo, po): Approximately 80%
therapeutic plasma levels ([1]; human, in vivo): 10 to 30 µg/mL
time to peak plasma levels ([1]; human, in vivo): 16 to 18 h

O=C1NC(=O)C(c2ccccc2)(c2ccccc2)N1.[Na] [Phenytoin Sodium, 2,4-Imidazolidinedione, 5,5-diphenyl-, monosodium salt]
lethal plasma levels ([1]; human, in vivo): ~100 µg/mL

CN(C)CCCN1c2ccccc2Sc2ccc(Cl)cc21 [Chlorpromazine hydrochloride, 10H-Phenothiazine-10-propanamine, 2-chloro-N,N-dimethyl-, mono hydrochloride]
volume of distribution after intramuscular administration ([1]; intramuscular): 21.8 L/kg

COC(=O)[C@H]1[C@H]2C[C@@H]3c4[nH]c5cc(OC)ccc5c4CCN3C[C@H]2C[C@@H](OC(=O)c2cc(OC)c(OC)c(OC)c2)[C@@H]1OC [Reserpine, Yohimban-16-carboxylic acid, 11,17-dimethoxy-18-[(3,4,5-trimethoxybenzoyl)oxy]-, methyl ester, (3β, 16β, 17α, 18β, 20α)-]
absorption (in words) [1]: absorbed poorly and erratically

C=C[C@H]1C[N@@]2CC[C@H]1C[C@@H]2[C@@H](O)c1ccnc2ccc(OC)cc12 [Quinidine]
elimination by hepatic biotransformation ([1]; human, in vivo): 50-60%

CC(C)NCC(O)COc1cccc2ccccc12 (centres unmarked) [Propranolol]
bound to plasma protein ([1]; human, in vivo): Approximately 90%
variability in plasma concentrations after oral administration ([1]; inter-individual): approximately 20 fold

CCOC(=O)C1=C(C)NC(C)=C(C(=O)OC)C1c1cccc([N+](=O)[O-])c1 (centres unmarked) [Nitrendipine, 3,5-Pyridinedicarboxylic acid, 1,4-dihydro-2,6-dimethyl-4-(3-nitrophenyl)-, ethyl methyl ester]
bound to plasma protein ([1]; human, in vivo): About 98%
half-life, average or usual value ([1]; human, in vivo): 12 h

CC(C)(C)c1ccc(C(O)CCCN2CCC(C(O)(c3ccccc3)c3ccccc3)CC2)cc1 (stereo not drawn) [Terfenadine, 1-Piperidinebutanol, α-[4-(1,1-dimethylethyl)phenyl]-4-(hydroxydiphenylmethyl)-]
bound to plasma protein ([1]; human, in vivo): 97%
absorption (in words) [1]: absorbed rapidly and almost completely

O=C1CN=C(c2ccccc2Cl)c2cc([N+](=O)[O-])ccc2N1 [Clonazepam, 2H-1,4-Benzodiazepin-2-one, 5-(2-chlorophenyl)-1,3-dihydro-7-nitro-]
therapeutic plasma levels ([1]; human, in vivo): 0.02 to 0.08 µg/mL

CCCN(CCC)S(=O)(=O)c1ccc(C(=O)O)cc1 [Probenecid]
absorption (in words) [1]: completely absorbed

CCOC(=O)C(C)(C)Oc1ccc(Cl)cc1 [Clofibrate, propanoic acid, 2-(4-chlorophenoxy)-2-methyl-,ethyl ester]
half-life in anuria ([1]; anuria): over 100 hr
half-life, average or usual value ([1]; human, in vivo): 11 h
fraction metabolized ([1]; mostly to a glucuronide conjugate): About 60%

CC[C@H](C)C1C(=O)N(C)[C@@H]([C@@H](C)CC)C(=O)NCC(=O)N(C)[C@@H](C(C)C)C(=O)N[C@@H](Cc2ccc(OC)cc2)C(=O)O[C@@H](C)C(=O)N2CCCC[C@H]2C(=O)N(C)[C@@H](C(C)C)C(=O)N[C@@H](C(C)C)C(=O)N(C)[C@@H](CC(=O)OC(C)(C)C)C(=O)N1C (some centres unmarked) [SDZ 280-446] (cyclo(G[NMeV]Y(Me)[Lac][Pip][NMeV]V[NMeD](OtBu)[NMeξIle][NMeI]))
p-glycoprotein inhibition relative to verapamil (p-glycoprotein [2]): stronger inhibitors than verapamil

CCN1CCN(C(=O)N[C@@H](C(=O)N[C@@H]2C(=O)N3C(C(=O)O)=C(CSc4nnnn4C)CS[C@H]23)c2ccc(O)cc2)C(=O)C1=O [Cefoperazone]
eliminated by biliary secretion ([1]; human, in vivo): 70%
eliminated by urinary excretion ([1]; human, in vivo): 30%

CC[C@H](C)[C@H]1O[C@]2(CC[C@@H]1C)C[C@@H]1C[C@@H](C/C=C(\C)[C@@H](O[C@H]3C[C@H](OC)[C@@H](O[C@H]4C[C@H](OC)[C@@H](O)[C@H](C)O4)[C@H](C)O3)[C@@H](C)/C=C/C=C3\CO[C@@H]4[C@H](O)C(C)=C[C@@H](C(=O)O1)[C@]34O)O2 [ivermectin]
time to peak concentrations in plasma ([1]; oral administration): ≤ 4 h
half-life ([1]; verapamil: normal persons): about 10 hours

CN1CC[C@H](c2c(O[C@@H]3O[C@H](C(=O)O)[C@@H](O)[C@H](O)[C@H]3O)cc(O)c3c(=O)cc(-c4ccccc4Cl)oc23)[C@H](O)C1 [flavopiridol glucuronide, 7-O-β-glucopyranuronosyl-flavopiridol]
inter-patient variability of plasma level (coefficient of variation) at 23 h ([3]; human, in vivo): 83%
inter-patient variability of plasma level (coefficient of variation) at 47 h ([3]; human, in vivo): 102%
inter-patient variability of plasma level (coefficient of variation) at 71 h ([3]; human, in vivo): 107%

OCCN1CCN(CC/C=C2\c3ccccc3Sc3ccc(C(F)(F)F)cc32)CC1 [trans-flupenthixol]
potency for reversing MDR relative to equimolar concentrations of verapamil [4]: two- to three-fold more potent
reversal of resistance to doxorubicin, vincristine, and colchicine [4]: fully reversed resistance

C[C@@H]1C[C@H]2[C@@H]3CCC4=CC(=O)C=C[C@]4(C)C3=CC[C@]2(C)[C@H]1C(=O)CN1CCN(c2cc(N3CCCC3)nc(N3CCCC3)n2)CC1 [Tirilazad]
inhibition of photoaffinity labeling of p-glycoprotein relative to verapamil (p-glycoprotein [5]): more effectively than does verapamil
sensitization of resistant cells to killing by vinblastine [6]: 66 fold

CN1CC[C@H](c2c(O)cc(O)c3c(=O)cc(-c4ccccc4Cl)oc23)[C@H](O)C1 [flavopiridol]
inter-patient variability of plasma level (coefficient of variation) at 23 h ([3]; 23 h): 81%
concentration at 23 h ([3]; human, plasma, intravenous, 72 h-continuous infusion 50 mg/m2/day, first cycle, 23 h into the infusion, 22 patients, read-out: median plasma concentration (interquartile range) at 23 h): 389 nM
concentration at 47 h ([3]; human, plasma, intravenous, 72 h-continuous infusion 50 mg/m2/day, first cycle, 47 h into the infusion, read-out: median plasma concentration (interquartile range) at 47 h): 412 nM
concentration at 71 h ([3]; human, plasma, intravenous, 72 h-continuous infusion 50 mg/m2/day, first cycle, 71 h into the infusion, read-out: median plasma concentration (interquartile range) at 71 h): 397 nM
Km at 3 h [7]: 642 µM
extensive glucuronidators who did not develop diarrhea ([8]; extensive glucuronidators): 73%
patients with grade 1 diarrhea ([8]; first cycle): Five
patients with grade 2 diarrhea ([8]; first cycle): six
patients with grade 3 diarrhea ([8]; first cycle): two
extensive glucuronidators who did not develop diarrhea ([8]; metabolic ratio at 71 h higher than 1.2): 8 of 11
poor glucuronidators who developed diarrhea ([8]; metabolic ratio at 71 h lower than 1.2): 10 of 11
diarrhea present in poor glucuronidators of flavopiridol ([8]; poor glucuronidators): 91%
concentrations showing differential growth inhibitory activity (neoplastic cells): below 200 nM

benzothiazepin-4(5H)-one, 3-(acetyloxy)-5-[2-(dimethylamino)ethyl]-2,3-dihydro-2-(4-methoxyphenyl)-, (+)-cis-, monohydrochloride [Diltiazem]
bound to plasma protein ([1]; human, in vivo): 70-80%
drug appearing unchanged in the urine ([1]; human, in vivo): Less than 4%
fraction of an oral dose absorbed ([1]; oral): 80%
half-life ([1]; plasma/serum/elimination half-life as printed): about 4 hr

Cc1ccc(C)c(OCCCC(C)(C)C(=O)O)c1 [gemfibrozil]
plasma concentration after 2 hours ([1]; single dose 600 mg): about 15 Ug/ml
plasma concentration after 9 hours ([1]; single dose 600 mg): ~5 Ug/ml
